IC50, concentration and Plasma exposure data for ten molecules are collected here from patent US20240246984A1, “HETEROCYCLIC JAK INHIBITOR” (BEIJING INNOCARE PHARMA TECH CO., LTD., priority 2020, published 2024).

Read-outs that look alike come from different tables or passages of the source.

Series [1] addresses human recombinant JAK2 protein (Homo sapiens, UniProt O60674). The series can be described thus: JAK2 activity inhibition assay (HTRF kinase detection). It is filed as biochemical. As to conditions: 2.5 μM ATP substrate solution. On the procedure: The effect of the compounds of the present invention on the activity of JAK2 was assessed by using an in vitro kinase detection assay.
The enzymatic activity of JAK2 was assessed by detecting the substrate phosphorylation level in a kinase reaction with a homogeneous time-resolved fluorescence (HTRF) kinase detection kit (Cisbio, 62TK0PEC). A reaction buffer contained an enzyme buffer (1×), 5 mM MgCl2, 1 mM DTT and 0.01% Brij35 from the kit; a human recombinant JAK2 protein (Carna Biosciences, 08-045) was diluted to a kinase reaction solution of 0.15 ng/μL with the reaction buffer; a substrate reaction solution contained 2.5 μM ATP and a biotin-labeled tyrosine kinase substrate diluted to 0.25 μM with the reaction buffer; a detection buffer contained 0.1 ng/μL Eu^3+ labeled cage antibody (Cisbio, 61T66KLB) and 12.5 nM streptavidin-labeled XL665 (Cisbio, 610SAXLB) in the reaction buffer; the compound was dissolved to 10 μM in DMSO, followed by a serial 4-fold dilution with DMSO to a minimum concentration of 0.061 nM. Each concentration was further diluted 40-fold with the reaction buffer. To a 384-well assay plate (Corning, 3674) were added 4 μL of the compound solutions having a series of concentrations and 2 μL of JAK2 kinase reaction solutions. After being mixed evenly, the mixtures were incubated at room temperature for 15 minutes, and then 4 μL of the substrate reaction solutions were added. The reaction mixtures were incubated at room temperature for 30 minutes. Then the reaction mixtures were added with 10 μL of detection solutions, mixed evenly, and allowed to stand at room temperature for 30 minutes. An Envision plate reader (Perkin Elmer) was then used to measure the progress of the reaction at wavelengths of 620 nm and 665 nm. The signal value (absorbance at 665 nm/absorbance at 620 nm) was positively correlated with the degree of substrate phosphorylation, therefore the kinase activity of JAK2 was detected. In this assay, the group without JAK2 kinase protein was the 100% inhibition group, and the group with JAK2 kinase protein but without the test compound was the 0% inhibition group. The compound inhibition curve was plotted using XLfit software and the IC50 of its inhibition was calculated.

Series [2] concerns the target human recombinant TYK2 protein (Homo sapiens, UniProt P29597). Briefly: TYK2 activity inhibition assay (HTRF kinase detection). It counts as biochemical. As to conditions: 11.25 μM ATP substrate solution. The protocol: The effect of the compounds of the present invention on the activity of TYK2 was assessed by using an in vitro kinase detection assay.
The enzymatic activity of TYK2 was assessed by detecting the substrate phosphorylation level in a kinase reaction with a homogeneous time-resolved fluorescence (HTRF) kinase detection kit (Cisbio, 62TK0PEC). A reaction buffer contained an enzyme buffer (1×), 5 mM MgCl2, 1 mM DTT and 0.01% Brij35 from the kit; a human recombinant TYK2 protein (Carna Biosciences, 08-147) was diluted to a kinase reaction solution of 0.25 ng/μL with the reaction buffer; a substrate reaction solution contained 11.25 μM ATP and a biotin-labeled tyrosine kinase substrate diluted to 0.5 μM with the reaction buffer; a detection buffer contained 0.1 ng/μL Eu^3+ labeled cage antibody (Cisbio, 61T66KLB) and 25 nM streptavidin-labeled XL665 (Cisbio, 610SAXLB) in the reaction buffer; the compound was dissolved to 10 μM in DMSO, followed by a serial 4-fold dilution with DMSO to a minimum concentration of 0.061 nM. Each concentration was further diluted 40-fold with the reaction buffer. To a 384-well assay plate (Corning, 3674) were added 4 μL of the compound solutions having a series of concentrations and 2 μL of kinase reaction solutions. After being mixed evenly, the mixtures were incubated at room temperature for 15 minutes, and then 4 μL of the substrate reaction solutions were added. The reaction mixtures were incubated at room temperature for 40 minutes. Then the reaction mixtures were added with 10 μL of detection solutions, mixed evenly, and allowed to stand at room temperature for 30 minutes. An Envision plate reader (Perkin Elmer) was then used to measure the progress of the reaction at wavelengths of 620 nm and 665 nm. The signal value (absorbance at 665 nm/absorbance at 620 nm) was positively correlated with the degree of substrate phosphorylation, therefore the kinase activity of TYK2 was detected. In this assay, the group without TYK2 kinase protein was the 100% inhibition group, and the group with TYK2 kinase protein but without the test compound was the 0% inhibition group. The compound inhibition curve was plotted using XLfit software and the IC50 of its inhibition was calculated.
In general terms: In TR-FRET formats the signal depends on donor and acceptor labels being close together.

The test system of series [3] is IL-12-induced IFN-γ secretion in NK92 cells. Briefly: Inhibition of IL-12-induced IFN-γ secretion in NK92 cells (ELISA). As to conditions: Homo sapiens, IL-12 stimulation, 24 hours, read-out: IC50 (NK92IL12/IFN-γ). It counts as cell-based. The protocol:
The effect of the compounds of the present invention on IFN-γ secretion in IL-12-induced NK92 cells was evaluated by an enzyme-linked immunosorbent assay (ELISA).
The assay principle was generally described below: IL-12R was mainly expressed in activated T-cells, NK cells (NK92 was an NK cell line), DC cells, and B-cells. When binding to IL-12, it activated the JAK2/TYK2 signal transduction pathway within NK cells and activated T lymphocytes, thereby inducing secretion of IFN-γ.
The compound was dissolved to 2.5 mM in DMSO, followed by a serial 4-fold dilution with DMSO to a minimum concentration of 0.31 μM. Each concentration was further diluted 50-fold with an FBS-free MEMα medium (Thermofisher. 12561-056).
NK92 cells (Nanjing Cobioer, CBP60980) were cultured in a complete MEMα medium containing 12.5% FBS (Ausbian, VS500T), 12.5% horse serum (Thermofisher, 16050-122), 0.02 mM folic acid (Sigma, F8758), 0.2 mM inositol (Sigma, 17850), 0.55 mM β-mercaptoethanol (Thermofish, 21985-023), 200 U/mL IL-2 (R&D Systems, 202-1L), and 100 U/mL penicillin-streptomycin mixed liquor (ThermoFisher, 15140122). When covering 80-90% of the culture container surface, the cells were dispersed and plated on a 96-well plate (ThermoFisher, 167425) with 100,000 cells per well (80 μL of the complete MEMα medium without IL-2). The 96-well plate was then incubated overnight in a 37° C., 5% CO2 incubator.
After overnight incubation, 10 μL of the compound and 10 μL of 50 ng/ml IL-12 (R &D Systems, 219-1L) were added to each well and mixed gently, and the 96-well plate was incubated in the 37° C., 5% CO2 incubator for additional 24 hours. The plate was centrifuged at 800 rpm for 10 minutes at room temperature and 50 μL of the supernatant from each well was transferred to another 96-well plate (Sigma, CLS3695) coated with anti-IFN-γ antibody. The amount of IFN-γ secretion was detected following the instruction from the Human IFN-γ DuoSet ELISA assay kit (R & D Systems, DY285B). In this assay, the group in which IL-12 and the test compound were replaced with the MEMα medium was the non-stimulated control group (100% inhibition), and the group with IL-12 and 0.2% DMSO was the stimulated control group (0% inhibition). The compound inhibition curve was plotted using XLfit software and the IC50 of its inhibition was calculated.
For orientation: ELISA stands for enzyme-linked immunosorbent assay.

Series [4] in a line: Pharmacokinetic assay in mice (plasma and colon exposure). It is filed as in vivo. As to conditions: fed female C57 mice, 25 mg/kg PO, 4 hours after dosing; for concentration at 4 h: mouse. On the procedure:
Test compounds were formulated into a 5 mg/mL dosing sample (suspension or solution) in a 20% HP-β-CD vehicle.
3 fed female C57 mice were each dosed 5 mL/kg by gavage (PO) at a dose of 25 mg/kg. Blood samples were collected 4 hours after dosing, and then animals were killed by CO2. Colons near the end of the rectum, approximately 4-6 cm in length, were dissected, rinsed with cold saline, blotted dry with absorbent paper, and weighed.
Concentrations of the test compounds in the plasma and intestinal homogenate sample were quantified by LC-MS/MS using an API-4500 mass spectrometer with a plasma limit of quantitation (LOQ) of 1 ng/mL.

Setting [5] is: colon homogenate, read-out: Colon exposure.
Where [6] appears, read: plasma, LOQ 1 ng/mL, read-out: Plasma exposure.

As for `O=C(c1ccc(Nc2nc(-c3c(F)cccc3F)n3cc[nH]c(=O)c23)cc1)N1CCOCC1` [Compound 1, 3-(2,6-difluorophenyl)-1-((4-(morpholine-4-carbonyl)phenyl)amino)imidazo[1,5-a]pyrazin-8(7H)-one], the values for the IC50 in series [1], in series [2] and in series [3] were 0.3 nM, 0.2 nM and 57 nM, respectively. Besides, the figures for the concentration at 4 h in series [4] (setting [5]) and in series [4] (setting [6]) were 5210 ng/g and 249 ng/mL, respectively.

Turning to `NC(=O)c1ccc(Nc2nc(-c3c(F)cccc3Cl)n3cc[nH]c(=O)c23)cc1` [Compound 28, 4-((3-(2-chloro-6-fluorophenyl)-8-oxo-7,8-dihydroimidazo[1,5-a]pyrazin-1-yl)amino)benzamide], the IC50 in series [1] stood at 0.6 nM; in series [2], 0.03 nM; in series [3], 38 nM. The concentration at 4 h in series [4] (setting [5]) stood at 2850 ng/g; in series [4] (setting [6]) it was 15 ng/mL.

Take `CN1CCN(C(=O)c2ccc(Nc3nc(-c4c(F)cccc4F)n4cc[nH]c(=O)c34)cc2)CC1` [Compound 29, 3-(2,6-difluorophenyl)-1-((4-(4-methylpiperazine-1-carbonyl)phenyl)amino)imidazo[1,5-a]pyrazin-8(7H)-one]: the IC50 in series [1] was 0.7 nM; in series [2], 0.1 nM; in series [3], 75 nM. The concentration at 4 h in series [4] (setting [5]) stood at 3920 ng/g; in series [4] (setting [6]), 75 ng/mL.

For `O=C(c1ccc(Nc2nc(-c3c(F)cccc3F)n3cc[nH]c(=O)c23)cc1)N1CCNCC1` [Compound 30, 3-(2,6-difluorophenyl)-1-((4-(piperazine-1-carbonyl)phenyl)amino)imidazo[1,5-a]pyrazin-8(7H)-one], the values for the IC50 in series [1], in series [2] and in series [3] were 0.8 nM, 0.1 nM and 318 nM, respectively. For the same molecule, the Plasma exposure entry in series [4] (plasma, LOQ 1 ng/mL) was “BLOQ”. In addition, the concentration at 4 h in series [4] (setting [5]) worked out at 12200 ng/g.

`CC(C)(C(N)=O)c1ccc(Nc2nc(-c3c(F)cccc3F)n3cc[nH]c(=O)c23)cc1` [Compound 34, 2-(4-((3-(2,6-difluorophenyl)-8-oxo-7,8-dihydroimidazo[1,5-a]pyrazin-1-yl)amino)phenyl)-2-methylpropanamide]: the IC50 in series [1] is 0.6 nM; in series [2], 0.1 nM; in series [3], 65 nM. Further, the concentration at 4 h in series [4] (setting [5]) is 2700 ng/g; in series [4] (setting [6]) it was 50 ng/mL.

As for `CC(C)(C(=O)N1CCNCC1)c1ccc(Nc2nc(-c3c(F)cccc3F)n3cc[nH]c(=O)c23)cc1` [Compound 36, 3-(2,6-difluorophenyl)-1-((4-(2-methyl-1-oxo-1-(piperazin-1-yl)propan-2-yl)phenyl)amino)imidazo[1,5-a]pyrazin-8(7H)-one], the figures for the IC50 in series [1], in series [2] and in series [3] were 0.6 nM, 0.4 nM and 3480 nM, respectively. The concentration at 4 h in series [4] (setting [5]) was 5090 ng/g; in series [4] (setting [6]), 18 ng/mL.

For the molecule `CN1CCN(C(=O)C(C)(C)c2ccc(Nc3nc(-c4c(F)cccc4Cl)n4cc[nH]c(=O)c34)cc2)CC1` [Compound 37, 3-(2-chloro-6-fluorophenyl)-1-((4-(2-methyl-1-(4-methylpiperazin-1-yl)-1-oxopropan-2-yl)phenyl)amino)imidazo[1,5-a]pyrazin-8(7H)-one], the IC50 in series [1] is 0.6 nM; in series [2] it was 0.2 nM; in series [3], 268 nM.

In the case of `CC(C)(C(=O)N1CCNCC1)c1ccc(Nc2nc(-c3c(F)cccc3Cl)n3cc[nH]c(=O)c23)cc1` [Compound 38, 3-(2-chloro-6-fluorophenyl)-1-((4-(2-methyl-1-oxo-1-(piperazin-1-yl)propan-2-yl)phenyl)amino)imidazo[1,5-a]pyrazin-8(7H)-one], the IC50 in series [1] worked out at 0.5 nM; in series [2], 0.4 nM; in series [3] it was 2850 nM.

For `O=C(O)c1ccc(Nc2nc(-c3c(F)cccc3F)n3cc[nH]c(=O)c23)cc1` [Compound 39, 4-((3-(2,6-difluorophenyl)-8-oxo-7,8-dihydroimidazo[1,5-a]pyrazin-1-yl)amino)benzoic acid], the IC50 in series [1] worked out at 4.5 nM; in series [2], 0.5 nM; in series [3], 4100 nM.

As to `CC(C)(C(=O)O)c1ccc(Nc2nc(-c3c(F)cccc3F)n3cc[nH]c(=O)c23)cc1` [Compound 40, 2-(4-((3-(2,6-difluorophenyl)-8-oxo-7,8-dihydroimidazo[1,5-a]pyrazin-1-yl)amino)phenyl)-2-methylpropanoic acid], the IC50 in series [1] turned out to be 2.8 nM; in series [2], 0.4 nM; in series [3], 406 nM.
